Publication PMC9518264, “Design and synthesis of novel quinazolinone-based derivatives as EGFR inhibitors with antitumor activity” (Journal of Enzyme Inhibition and Medicinal Chemistry, 2022)

Columns and labels:
caspase-3 = assay: Caspase-3 activation (ELISA) in breast HS 578T cancer cell line; assay type: cell-based, human
Description: Apoptosis is triggered by the activation of caspases, particularly caspase-3, which is an […] caspase responsible for apoptosis. Therefore, the induction of apoptosis by compound 6d was examined by the evaluation of caspase-3 activation in breast HS 578T cancer cell line. The effect of erlotinib as well as untreated cell line was used as positive and negative control, respectively. […] . […]
incubated for 15 minutes in the dark at room temperature. FacsCalibur was used to assess cell fluorescence after incubation (BD Biosciences, USA). The results were represented using dot-plot graphs.
1.1.5. Caspase-3 enzyme assay
The level of the apoptotic marker caspase-3 was measured using Invitrogen ELISA Kit Catalog # KHO1091. The procedure of the used kit was performed according to the manufacturer’s instructions. Let all components to reach room temperature before use. Gently combine all liquid reagents prior to use. Add 100 μL of the standard diluent buffer to the zero standard wells. Add 100 μL of standards and controls or diluted samples to the appropriate microtiter wells. Incubate for 2 h at room temperature. Pipette 100 μL of Caspase-3 (Active) detection antibody solution into each well. […] Read the absorbance of each well at 450 nm. Read the plate within 2 h after adding the stop solution. […] Read the concentrations for unknown samples and controls from the standard curve.

UACC-257 = assay: cells; assay type: cell-based
RPMI-8226 = assay: cells; assay type: cell-based
M14 = assay: cells; assay type: cell-based
BT-549 = assay: cells; assay type: cell-based
OVCAR-5 = assay: cells; assay type: cell-based
EGFR = EGFR (Homo sapiens, UniProt P00533); assay: In vitro EGFR kinase inhibitory assay (Kinase-Glo Max luminescence kit); assay type: biochemical
MALME-3M = assay: cells; assay type: cell-based
NCI-H460 = assay: cells; assay type: cell-based
CAKI-1 = assay: cells; assay type: cell-based
NCI/ADR-RES = assay: cells; assay type: cell-based
SF-539 = assay: cells; assay type: cell-based
HL-60(TB) = assay: cells; assay type: cell-based
DU-145 = assay: cells; assay type: cell-based
RXF 393 = assay: cells; assay type: cell-based
UACC-62 = assay: cells; assay type: cell-based
HS 578T cells [1] = assay: Cell cycle analysis by DNA flow cytometry (propidium iodide)
Description: Flow cytometry was used to analyse the cell cycle using ab139418 propidium iodide flow cytometry kit/BD (Abcam, Cambridge, UK), as directed by the manufacturer guidelines.
The cells were washed twice with ice-cold phosphate buffer saline (PBS) and collected by centrifugation.
(v/v) ethanol, washed with PBS, and re-suspended with 0.1 mg/mL RNase to digest cellular RNA and thus minimize stained RNA in the background. The cells were next stained with PI, a fluorescent molecule that may bind to nucleic acid, at a concentration of 40 mg/mL. In cells, PI attaches to DNA in proportion to its amount. Because the DNA content of cells at different stages of the cell cycle differs, the fluorescence intensity can be used to assess the stage of cell growth. FacsCalibur (BD Biosciences, USA) was used to estimate cell fluorescence, which was then examined using Cell-Quest software (Becton Dickinson).

HS 578T cells [2] = assay: Annexin V/PI dual staining apoptosis assay; assay type: cell-based, human
[3] = 24 h at 2.17 µM, vs untreated control

Chain of EGFR (P00533 669-1210): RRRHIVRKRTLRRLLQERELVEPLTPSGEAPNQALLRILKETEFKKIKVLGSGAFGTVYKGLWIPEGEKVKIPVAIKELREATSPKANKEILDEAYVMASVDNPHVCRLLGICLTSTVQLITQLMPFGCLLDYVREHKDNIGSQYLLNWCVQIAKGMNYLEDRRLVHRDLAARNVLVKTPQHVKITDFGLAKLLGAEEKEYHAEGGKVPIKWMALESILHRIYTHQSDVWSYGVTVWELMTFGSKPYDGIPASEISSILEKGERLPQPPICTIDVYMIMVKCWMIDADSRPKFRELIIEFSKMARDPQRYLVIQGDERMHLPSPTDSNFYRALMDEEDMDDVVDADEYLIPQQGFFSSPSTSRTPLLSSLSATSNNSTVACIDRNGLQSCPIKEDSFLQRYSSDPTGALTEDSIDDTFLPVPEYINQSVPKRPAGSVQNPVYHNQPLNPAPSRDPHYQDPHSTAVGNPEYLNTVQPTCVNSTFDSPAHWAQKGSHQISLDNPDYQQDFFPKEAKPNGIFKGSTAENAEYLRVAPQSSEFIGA

## O=C(CSc1nc2ccccc2c(=O)n1-c1ccc(Cl)cc1)NN=Cc1ccc(Oc2ccc(Cl)cc2)cc1 [6d, N'-(4–(4-chlorophenoxy)benzylidene)-2-((3–(4-chlorophenyl)-4-oxo-3,4-dihydroquinazolin-2-yl)thio)acetohydrazide]
caspase-3
  increase of caspase-3 level compared to negative control: 10.75 fold
UACC-257; Homo sapiens, UACC-257
  GI50: 4.62 µM
UACC-257; Homo sapiens, UACC-257, read-out: growth inhibition % (GI%)
  inhibition at 10 µM: 41%
UACC-257; Homo sapiens, UACC-257, 5 doses, read-out: LC50 (the source's name)
  CC50: > 100 µM
UACC-257; UACC-257, 5 doses
  TGI: 22.5 µM
RPMI-8226; Homo sapiens, RPMI-8226
  GI50: 2.98 µM
RPMI-8226; Homo sapiens, RPMI-8226, read-out: growth inhibition % (GI%)
  inhibition at 10 µM: 75.3%
RPMI-8226; Homo sapiens, RPMI-8226, 5 doses, read-out: LC50 (the source's name)
  CC50: > 100 µM
RPMI-8226; RPMI-8226, 5 doses
  TGI: 15.8 µM
M14; Homo sapiens, M14
  GI50: 1.58 µM
M14; Homo sapiens, M14, read-out: growth inhibition % (GI%)
  inhibition at 10 µM: > 100%
M14; Homo sapiens, M14, 5 doses, read-out: LC50 (the source's name)
  CC50: 7.58 µM
M14; M14, 5 doses
  TGI: 3.47 µM
BT-549; BT-549, 5 doses
  TGI: 12.2 µM
BT-549; Homo sapiens, BT-549
  GI50: 3.28 µM
BT-549; Homo sapiens, BT-549, read-out: growth inhibition % (GI%)
  inhibition at 10 µM: > 100%
BT-549; Homo sapiens, BT-549, 5 doses, read-out: LC50 (the source's name)
  CC50: 36.2 µM
OVCAR-5; Homo sapiens, OVCAR-5
  GI50: 2.27 µM
OVCAR-5; Homo sapiens, OVCAR-5, read-out: growth inhibition % (GI%)
  inhibition at 10 µM: 29.4%
OVCAR-5; Homo sapiens, OVCAR-5, 5 doses, read-out: LC50 (the source's name)
  CC50: 32.2 µM
OVCAR-5; OVCAR-5, 5 doses
  TGI: 6.44 µM
EGFR
  IC50: 0.069 ± 0.004 µM
MALME-3M; Homo sapiens, Malme-3M
  GI50: 1.38 µM
MALME-3M; Homo sapiens, Malme-3M, read-out: growth inhibition % (GI%)
  inhibition at 10 µM: > 100%
MALME-3M; Homo sapiens, MALME-3M, 5 doses, read-out: LC50 (the source's name)
  CC50: 5.55 µM
MALME-3M; MALME-3M, 5 doses
  TGI: 2.77 µM
NCI-H460; Homo sapiens, NCI-H460
  GI50: 0.789 µM
NCI-H460; Homo sapiens, NCI-H460, read-out: growth inhibition % (GI%)
  inhibition at 10 µM: > 100%
NCI-H460; Homo sapiens, NCI-H460, 5 doses
  LC50 (concentration killing 50% of cells): 7.78 µM
NCI-H460; NCI-H460, 5 doses
  TGI: 2.6 µM
CAKI-1; CAKI-1, 5 doses
  TGI: 12.0 µM
CAKI-1; Homo sapiens, CAKI-1
  GI50: 3.06 µM
CAKI-1; Homo sapiens, CAKI-1, read-out: growth inhibition % (GI%)
  inhibition at 10 µM: 67%
CAKI-1; Homo sapiens, CAKI-1, 5 doses, read-out: LC50 (the source's name)
  CC50: 35.4 µM
NCI/ADR-RES; 5 doses
  TGI: 3.56 µM
NCI/ADR-RES; Homo sapiens
  GI50: 1.64 µM
NCI/ADR-RES; Homo sapiens, 5 doses, read-out: LC50 (the source's name)
  CC50: 7.76 µM
NCI/ADR-RES; Homo sapiens, read-out: growth inhibition % (GI%)
  inhibition at 10 µM: 84.3%
SF-539; Homo sapiens, SF-539
  GI50: 2.54 µM
SF-539; Homo sapiens, SF-539, read-out: growth inhibition % (GI%)
  inhibition at 10 µM: 30.3%
SF-539; Homo sapiens, SF-539, 5 doses, read-out: LC50 (the source's name)
  CC50: 21.5 µM
SF-539; SF-539, 5 doses
  TGI: 6.32 µM
HL-60(TB); HL-60(TB), 5 doses
  TGI: 37.0 µM
HL-60(TB); Homo sapiens, HL-60
  GI50: 16 µM
HL-60(TB); Homo sapiens, HL-60, read-out: growth inhibition % (GI%)
  inhibition at 10 µM: < 15%
HL-60(TB); Homo sapiens, HL-60(TB), 5 doses, read-out: LC50 (the source's name)
  CC50: 85.7 µM
DU-145; DU-145, 5 doses
  TGI: 20.4 µM
DU-145; Homo sapiens, DU-145
  GI50: 3.52 µM
DU-145; Homo sapiens, DU-145, read-out: growth inhibition % (GI%)
  inhibition at 10 µM: 86.9%
DU-145; Homo sapiens, DU-145, 5 doses, read-out: LC50 (the source's name)
  CC50: > 100 µM
RXF 393; Homo sapiens, RXF 393
  GI50: 1.7 µM
RXF 393; Homo sapiens, RXF 393, read-out: growth inhibition % (GI%)
  inhibition at 10 µM: > 100%
RXF 393; Homo sapiens, RXF 393, 5 doses, read-out: LC50 (the source's name)
  CC50: 5.81 µM
RXF 393; RXF 393, 5 doses
  TGI: 3.14 µM
UACC-62; Homo sapiens, UACC-62
  GI50: 1.59 µM
UACC-62; Homo sapiens, UACC-62, read-out: growth inhibition % (GI%)
  inhibition at 10 µM: 99.6%
UACC-62; Homo sapiens, UACC-62, 5 doses, read-out: LC50 (the source's name)
  CC50: 6.38 µM
UACC-62; UACC-62, 5 doses
  TGI: 3.18 µM
HS 578T cells [1]
  phase of cell cycle arrest: G1/S phase
HS 578T cells [1]; 24 h at 2.17 µM, vs control
  increase of cell population in the pre-G1 phase: 16.74 fold
HS 578T cells [1]; [3]
  decrease in the cell population at the G2/M phase: 52%
  increase of proportion of cells in G0-G1 phase: 1.12 fold
  increase of proportion of cells in S phase: 1.12 fold
HS 578T cells [2]
  increase in total apoptosis compared to the control: 16.74 fold
HS 578T cells [2]; IC50 concentration, 24 h
  Apoptosis Early: 19.24%
  Apoptosis Late: 13.45%
  Apoptosis Total: 39.02%
  Necrosis: 6.33%
